Test results as given in the kinase profiling compilation of Christmann-Franck et al. (2016).
Where “and” joins values, the source holds several entries; their conditions need not be identical. Equal entries are not always repeated.

Columns and labels:
Assay in all cases: radiometric filter-binding kinase assay, Kinase HotSpot
Details in all cases: compound 0.5 µM; ATP 10 µM
[1] = biological target: ADRBK2 (human) (UniProt P35626)
[2] = biological target: SRMS (human) (UniProt Q9H3Y6)
[3] = biological target: EPHB2 (human) (UniProt P29323)
[4] = biological target: GRK4 (human) (UniProt P32298)
[5] = biological target: STK16 (human) (UniProt O75716)
[6] = biological target: FGFR3 (human) (UniProt P22607)
[7] = biological target: MAPK9 (human) (UniProt P45984)
[8] = biological target: KIT (human) (UniProt P10721)
[9] = biological target: PTK6 (human) (UniProt Q13882)
[10] = biological target: MAPK3 (human) (UniProt P27361)
[11] = biological target: WEE1 (human) (UniProt P30291)
[12] = biological target: AXL (human) (UniProt P30530)
[13] = biological target: NTRK2 (human) (UniProt Q16620)
[14] = biological target: PRKD2 (human) (UniProt Q9BZL6)
[15] = biological target: MELK (human) (UniProt Q14680)
[16] = biological target: NTRK3 (human) (UniProt Q16288)
[17] = biological target: NTRK1 (human) (UniProt P04629)
[18] = biological target: NEK1 (human) (UniProt Q96PY6)
[19] = biological target: PHKG1 (human) (UniProt Q16816)
[20] = biological target: IRAK4 (human) (UniProt Q9NWZ3)
[21] = biological target: RPS6KA6 KD1 KD2 (human) (UniProt Q9UK32)
[22] = biological target: MAPKAPK2 (human) (UniProt P49137)
[23] = biological target: CLK4 (human) (UniProt Q9HAZ1)
[24] = biological target: NEK2 (human) (UniProt P51955)
[25] = biological target: TTK (human) (UniProt P33981)
[26] = biological target: CDK9 CCNT1 (human) (UniProt P50750+O60563)
[27] = biological target: SRC (human) (UniProt P12931)
[28] = biological target: SLK (human) (UniProt Q9H2G2)
[29] = biological target: LYN (human) (UniProt P07948)
[30] = biological target: TLK2 (human) (UniProt Q86UE8)
[31] = biological target: BRSK1 (human) (UniProt Q8TDC3)
[32] = biological target: CLK3 (human) (UniProt P49761)
[33] = biological target: MYO3B (human) (UniProt Q8WXR4)
[34] = biological target: MAPK14 (human) (UniProt Q16539)
[35] = biological target: PTK2 (human) (UniProt Q05397)
[36] = biological target: PRKCE (human) (UniProt Q02156)
[37] = biological target: PRKG2 (human) (UniProt Q13237)
[38] = biological target: PLK3 (human) (UniProt Q9H4B4)
[39] = biological target: MLTK (human) (UniProt Q9NYL2)
[40] = biological target: CSNK1A1 (human) (UniProt P48729)
[41] = biological target: PAK4 (human) (UniProt O96013)
[42] = biological target: PDGFRB (human) (UniProt P09619)

Chain of LYN (human) (P07948 whole entry, looked up): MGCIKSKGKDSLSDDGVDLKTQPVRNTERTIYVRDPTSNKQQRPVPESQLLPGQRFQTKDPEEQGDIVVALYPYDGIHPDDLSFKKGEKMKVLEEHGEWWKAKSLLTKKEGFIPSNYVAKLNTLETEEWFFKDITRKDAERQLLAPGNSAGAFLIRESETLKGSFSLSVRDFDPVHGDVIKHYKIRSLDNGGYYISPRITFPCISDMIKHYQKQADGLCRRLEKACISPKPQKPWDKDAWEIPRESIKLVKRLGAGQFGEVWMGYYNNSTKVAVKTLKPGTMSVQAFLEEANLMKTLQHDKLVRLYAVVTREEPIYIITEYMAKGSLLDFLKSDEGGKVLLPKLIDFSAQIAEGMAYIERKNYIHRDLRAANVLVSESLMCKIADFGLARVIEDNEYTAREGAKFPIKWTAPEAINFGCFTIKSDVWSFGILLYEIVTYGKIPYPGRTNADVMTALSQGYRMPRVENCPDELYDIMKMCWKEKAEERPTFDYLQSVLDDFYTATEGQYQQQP
Chain of MELK (human) (Q14680 whole entry, looked up): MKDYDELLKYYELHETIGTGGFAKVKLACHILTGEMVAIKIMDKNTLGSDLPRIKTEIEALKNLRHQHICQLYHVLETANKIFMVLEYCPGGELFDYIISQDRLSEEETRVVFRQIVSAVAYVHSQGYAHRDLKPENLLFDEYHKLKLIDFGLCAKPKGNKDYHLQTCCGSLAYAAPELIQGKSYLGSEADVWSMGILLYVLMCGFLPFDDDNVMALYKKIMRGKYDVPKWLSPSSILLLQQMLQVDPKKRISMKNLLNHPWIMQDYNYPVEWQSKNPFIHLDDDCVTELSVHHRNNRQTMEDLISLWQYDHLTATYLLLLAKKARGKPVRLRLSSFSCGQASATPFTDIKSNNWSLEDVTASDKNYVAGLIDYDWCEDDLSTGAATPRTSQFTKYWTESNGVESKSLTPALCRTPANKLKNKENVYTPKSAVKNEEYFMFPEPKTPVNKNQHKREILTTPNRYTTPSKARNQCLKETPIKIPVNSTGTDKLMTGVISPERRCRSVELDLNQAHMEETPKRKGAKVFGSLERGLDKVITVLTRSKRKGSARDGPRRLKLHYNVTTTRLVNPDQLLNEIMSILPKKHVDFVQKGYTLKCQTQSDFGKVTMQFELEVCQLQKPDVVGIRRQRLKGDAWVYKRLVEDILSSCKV
Chain of EPHB2 (human) (P29323 whole entry, looked up): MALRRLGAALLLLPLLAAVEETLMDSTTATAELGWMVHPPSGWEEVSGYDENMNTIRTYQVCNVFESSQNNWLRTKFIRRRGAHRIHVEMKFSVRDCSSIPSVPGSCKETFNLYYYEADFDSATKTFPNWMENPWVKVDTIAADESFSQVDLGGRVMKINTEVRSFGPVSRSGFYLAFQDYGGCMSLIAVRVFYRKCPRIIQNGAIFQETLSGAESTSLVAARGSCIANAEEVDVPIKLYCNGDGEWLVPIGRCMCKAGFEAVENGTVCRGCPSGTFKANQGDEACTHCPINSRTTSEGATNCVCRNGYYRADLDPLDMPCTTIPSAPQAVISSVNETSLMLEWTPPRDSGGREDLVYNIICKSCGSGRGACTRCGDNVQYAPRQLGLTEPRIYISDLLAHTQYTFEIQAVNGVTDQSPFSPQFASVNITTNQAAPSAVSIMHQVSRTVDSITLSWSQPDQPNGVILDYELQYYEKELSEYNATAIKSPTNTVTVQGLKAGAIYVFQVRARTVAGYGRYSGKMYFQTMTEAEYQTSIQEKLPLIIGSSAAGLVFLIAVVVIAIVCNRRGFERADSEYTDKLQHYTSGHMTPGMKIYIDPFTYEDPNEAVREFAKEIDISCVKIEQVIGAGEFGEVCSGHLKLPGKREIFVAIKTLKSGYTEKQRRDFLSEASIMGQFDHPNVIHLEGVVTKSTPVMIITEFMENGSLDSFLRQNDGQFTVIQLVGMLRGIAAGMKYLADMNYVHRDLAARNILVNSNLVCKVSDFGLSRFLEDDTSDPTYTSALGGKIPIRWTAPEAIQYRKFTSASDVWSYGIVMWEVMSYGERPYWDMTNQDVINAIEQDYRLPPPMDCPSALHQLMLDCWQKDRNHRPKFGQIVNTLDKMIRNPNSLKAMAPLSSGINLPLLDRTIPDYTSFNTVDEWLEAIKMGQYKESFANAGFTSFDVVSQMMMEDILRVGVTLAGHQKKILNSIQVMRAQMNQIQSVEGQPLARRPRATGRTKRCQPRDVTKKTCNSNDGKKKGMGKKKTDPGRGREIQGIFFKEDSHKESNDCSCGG
Chain of PRKG2 (human) (Q13237 whole entry, looked up): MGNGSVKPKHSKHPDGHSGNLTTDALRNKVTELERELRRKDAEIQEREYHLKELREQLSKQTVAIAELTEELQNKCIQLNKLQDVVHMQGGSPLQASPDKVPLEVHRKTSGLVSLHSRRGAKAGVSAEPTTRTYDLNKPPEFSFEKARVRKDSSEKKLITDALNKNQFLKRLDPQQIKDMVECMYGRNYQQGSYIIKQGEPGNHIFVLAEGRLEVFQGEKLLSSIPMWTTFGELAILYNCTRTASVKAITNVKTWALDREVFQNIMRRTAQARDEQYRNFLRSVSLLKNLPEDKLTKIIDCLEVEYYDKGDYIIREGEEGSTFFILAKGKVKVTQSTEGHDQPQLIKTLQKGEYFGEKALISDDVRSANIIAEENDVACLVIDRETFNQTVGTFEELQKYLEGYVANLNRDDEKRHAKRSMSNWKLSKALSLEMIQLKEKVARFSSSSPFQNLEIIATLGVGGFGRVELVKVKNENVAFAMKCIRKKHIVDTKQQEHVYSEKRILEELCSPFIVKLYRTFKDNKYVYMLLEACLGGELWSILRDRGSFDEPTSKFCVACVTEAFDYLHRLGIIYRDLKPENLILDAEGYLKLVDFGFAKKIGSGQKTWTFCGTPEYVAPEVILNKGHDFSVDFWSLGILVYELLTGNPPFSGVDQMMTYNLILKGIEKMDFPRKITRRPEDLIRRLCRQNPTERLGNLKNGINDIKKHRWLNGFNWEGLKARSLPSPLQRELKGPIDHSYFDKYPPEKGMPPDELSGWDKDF
Chain of MAPKAPK2 (human) (P49137 whole entry, looked up): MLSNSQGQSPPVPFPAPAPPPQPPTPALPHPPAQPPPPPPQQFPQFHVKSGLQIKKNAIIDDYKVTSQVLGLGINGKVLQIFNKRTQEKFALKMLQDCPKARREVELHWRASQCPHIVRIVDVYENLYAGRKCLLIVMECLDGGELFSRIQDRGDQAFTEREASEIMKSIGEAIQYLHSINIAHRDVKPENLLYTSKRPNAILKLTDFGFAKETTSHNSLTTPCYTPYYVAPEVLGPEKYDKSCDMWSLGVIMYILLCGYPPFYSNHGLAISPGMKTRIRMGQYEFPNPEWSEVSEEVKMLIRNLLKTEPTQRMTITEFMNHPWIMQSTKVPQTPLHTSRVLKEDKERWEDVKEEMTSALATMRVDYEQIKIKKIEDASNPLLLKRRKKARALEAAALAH
Chain of MAPK3 (human) (P27361 whole entry, looked up): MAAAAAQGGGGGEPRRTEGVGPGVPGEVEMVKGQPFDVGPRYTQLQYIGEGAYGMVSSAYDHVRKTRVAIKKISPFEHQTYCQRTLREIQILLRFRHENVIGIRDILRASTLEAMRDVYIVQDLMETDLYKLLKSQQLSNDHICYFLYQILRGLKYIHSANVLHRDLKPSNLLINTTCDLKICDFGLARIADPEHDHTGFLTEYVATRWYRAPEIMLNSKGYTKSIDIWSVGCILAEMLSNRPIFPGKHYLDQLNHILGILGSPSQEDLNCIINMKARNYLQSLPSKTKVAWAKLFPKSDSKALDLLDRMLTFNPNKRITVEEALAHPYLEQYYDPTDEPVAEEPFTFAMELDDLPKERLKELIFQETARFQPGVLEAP
Chain of NEK1 (human) (Q96PY6 whole entry, looked up): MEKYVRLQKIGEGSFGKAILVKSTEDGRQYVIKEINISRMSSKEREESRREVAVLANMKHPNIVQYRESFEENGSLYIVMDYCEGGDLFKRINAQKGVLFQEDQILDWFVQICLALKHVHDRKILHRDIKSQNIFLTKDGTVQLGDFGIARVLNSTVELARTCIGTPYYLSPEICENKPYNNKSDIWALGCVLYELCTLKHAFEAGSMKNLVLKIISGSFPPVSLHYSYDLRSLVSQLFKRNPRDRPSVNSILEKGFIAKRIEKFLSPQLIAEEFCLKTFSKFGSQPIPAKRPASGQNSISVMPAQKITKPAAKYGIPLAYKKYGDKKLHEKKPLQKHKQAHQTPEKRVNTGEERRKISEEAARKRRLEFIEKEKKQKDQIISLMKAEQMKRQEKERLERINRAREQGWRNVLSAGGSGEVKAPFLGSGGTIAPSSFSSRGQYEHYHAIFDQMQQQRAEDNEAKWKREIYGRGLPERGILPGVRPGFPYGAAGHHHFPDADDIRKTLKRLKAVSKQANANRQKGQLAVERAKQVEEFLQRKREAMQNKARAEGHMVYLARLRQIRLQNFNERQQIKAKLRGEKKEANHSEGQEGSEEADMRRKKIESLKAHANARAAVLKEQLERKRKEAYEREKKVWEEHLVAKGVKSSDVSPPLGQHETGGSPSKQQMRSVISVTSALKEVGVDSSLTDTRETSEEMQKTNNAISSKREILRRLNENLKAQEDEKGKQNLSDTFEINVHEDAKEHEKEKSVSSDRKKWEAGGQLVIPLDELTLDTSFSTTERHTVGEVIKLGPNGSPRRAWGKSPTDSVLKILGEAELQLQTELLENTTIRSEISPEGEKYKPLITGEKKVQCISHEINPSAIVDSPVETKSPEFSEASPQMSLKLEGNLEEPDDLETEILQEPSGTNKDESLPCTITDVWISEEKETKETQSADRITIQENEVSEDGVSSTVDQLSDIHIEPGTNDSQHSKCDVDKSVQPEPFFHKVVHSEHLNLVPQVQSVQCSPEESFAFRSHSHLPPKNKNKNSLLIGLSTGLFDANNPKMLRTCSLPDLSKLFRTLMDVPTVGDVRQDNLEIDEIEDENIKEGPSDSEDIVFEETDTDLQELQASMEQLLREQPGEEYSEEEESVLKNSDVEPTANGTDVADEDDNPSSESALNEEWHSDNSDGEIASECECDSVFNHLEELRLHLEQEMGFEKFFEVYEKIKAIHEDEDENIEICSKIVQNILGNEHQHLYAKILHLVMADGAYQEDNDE

## N#C/C(=C(/N)Sc1ccc(N)cc1)c1ccccc1C(F)(F)F
[1]
  residual activity: 101%
[2]
  residual activity: 105%
[3]
  residual activity: 101%
[4]
  residual activity: 98.4%
[5]
  residual activity: 98.4%
[6]
  residual activity: 98.5%
[7]
  residual activity: 110%
[8]
  residual activity: 91.8%
[9]
  residual activity: 97.6%
[10]
  residual activity: 116%
[11]
  residual activity: 73.8%
[12]
  residual activity: 119%
[13]
  residual activity: 103%
[14]
  residual activity: 93.4%
[15]
  residual activity: 96.1%
[16]
  residual activity: 101%
[17]
  residual activity: 109%
[18]
  residual activity: 99%
[19]
  residual activity: 95.8%
[20]
  residual activity: 89.8%
[21]
  residual activity: 83.9%
[22]
  residual activity: 103%
[23]
  residual activity: 93.4%
[24]
  residual activity: 94.9%
[25]
  residual activity: 93.6%
[26]
  residual activity: 97.7%
[27]
  residual activity: 94.1%
[28]
  residual activity: 102%
[29]
  residual activity: 107% and 98.5%
[30]
  residual activity: 92.5%
[31]
  residual activity: 91.2%
[32]
  residual activity: 103%
[33]
  residual activity: 98.3%
[34]
  residual activity: 96%
[35]
  residual activity: 101%
[36]
  residual activity: 104%
[37]
  residual activity: 113%
[38]
  residual activity: 96.9%
[39]
  residual activity: 105%
[40]
  residual activity: 82.9%
[41]
  residual activity: 99.4%
[42]
  residual activity: 103%

## Nc1ccc2ncnc(NCCc3ccc(Oc4ccccc4)cc3)c2c1
[1]
  residual activity: 97.9%
[2]
  residual activity: 99.2%
[3]
  residual activity: 97.7%
[4]
  residual activity: 99.6%
[5]
  residual activity: 94.7%
[6]
  residual activity: 101%
[7]
  residual activity: 85%
[8]
  residual activity: 99.7%
[9]
  residual activity: 93.3%
[10]
  residual activity: 105%
[11]
  residual activity: 86.2%
[12]
  residual activity: 96.1%
[13]
  residual activity: 104%
[14]
  residual activity: 98.2%
[15]
  residual activity: 96.8%
[16]
  residual activity: 98.4%
[17]
  residual activity: 108%
[18]
  residual activity: 102%
[19]
  residual activity: 96.4%
[20]
  residual activity: 92.4%
[21]
  residual activity: 103%
[22]
  residual activity: 108%
[23]
  residual activity: 94.6%
[24]
  residual activity: 90%
[25]
  residual activity: 97.6%
[26]
  residual activity: 101%
[27]
  residual activity: 102%
[28]
  residual activity: 102%
[29]
  residual activity: 101% and 103%
[30]
  residual activity: 92.8%
[31]
  residual activity: 101%
[32]
  residual activity: 117%
[33]
  residual activity: 96.6%
[34]
  residual activity: 95.7%
[35]
  residual activity: 98.6%
[36]
  residual activity: 109%
[37]
  residual activity: 105%
[38]
  residual activity: 98.7%
[39]
  residual activity: 102%
[40]
  residual activity: 102%
[41]
  residual activity: 105%
[42]
  residual activity: 105%
